Assay results reported in patent US20190300842A1, “SYSTEMS AND METHODS FOR CONTINUOUSLY CULTURING MICROALGAE IN MIXOTROPHIC CONDITIONS” (HELIAE DEVELOPMENT, LLC, priority 2016, published 2019).
Read-outs that look alike come from different tables or passages of the source.

Test system: bacterial growth
Experimental: An experiment was conducted to compare a semi-continuous and continuous auxostat mixotrophic microalgae operation in an open outdoor bioreactor utilizing recycled media. The outdoor bioreactor system, protocols, and type of microalgae (Chlorella) was the same as described in Example 7. Different treatments were applied to the centrate resulting from membrane filter separation. The continuous media was treated with 14 g/L acetic acid. […] The media used for semi-continuous after each partial harvest was treated with 100% filtered ozone and stabilized by refrigeration at 4° C. After the first harvest, continuous treatment started in two of the four reactors. In the time between the continuous switch and the first partial harvest, non-recycled continuous feed media was used to maintain pH on the continuous cultures through the pH auxostat.

CC(=O)O [Acetic acid, acetic acid]
No bacterial growth was observed: bacterial growth (treatments of 5 g/L acetic acid and above, up to 21 days)
> 21 days: period for which the centrate could be stabilized (addition of at least 5 g/L acetic acid)
0.00: bacterial growth in centrate (quantity not named in Table 4) (acetic acid 5 g/L, 7 days) | bacterial growth in centrate (quantity not named in Table 4) (acetic acid 5 g/L, 14 days) | bacterial growth in centrate (quantity not named in Table 4) (acetic acid 5 g/L, 21 days) | bacterial growth in centrate (quantity not named in Table 4) (acetic acid 10 g/L, 7 days) | bacterial growth in centrate (quantity not named in Table 4) (acetic acid 10 g/L, 14 days) | bacterial growth in centrate (quantity not named in Table 4) (acetic acid 10 g/L, 21 days) | bacterial growth in centrate (quantity not named in Table 4) (acetic acid 15 g/L, 7 days) | bacterial growth in centrate (quantity not named in Table 4) (acetic acid 15 g/L, 14 days) | bacterial growth in centrate (quantity not named in Table 4) (acetic acid 15 g/L, 21 days)
